“Also recorded” adds a separate entry of the source.
Key:
rat TRPV1 [1] = target: T1, rat TRPV1 (Rattus norvegicus, UniProt O35433); assay type: cell-based
T1 construct: expressed in transfected cells; host or cells: CHO cells (T-Rex System, Invitrogen; tetracycline-induced)
Experimental: Recordings were made by a patch-clamp technique in whole-cell configuration using CHO cells stably expressing rat TRPV1. Whole-cell currents were recorded and digitized by Instru TECH LIH 8+8 data acquisition system (HEKA, Germany) at -80 mV holding voltage using EPC-8 (HEKA, Germany) amplifier, filtered at 5 kHz, sampled at 10kHz and stored. The external solution contained in mM: CaCl2 2.5, KCl 5, NaCl 143, D-glucose 18, HEPES 10, pH 7.35. Patch pipettes (2–5 MΩ resistance) were prepared by puller model P-97 (Sutter Instruments, USA). Pipette solution contained in mM: CsF 100, CsCl 40, NaCl 5, CaCl2 0.5, EGTA 5, HEPES 10, pH 7.2. Series resistance of about 20 MΩ was compensated by 70–80% and monitored during experiments. Drugs were applied using the ALA-VM8 (ALA Scientific Instruments, USA) perfusion system under computer control. All experiments were performed at 22°C.
(§1) All data were expressed as the mean ± standard deviation (SD). Significance of the effect was tested by ANOVA followed by Tukey’s post hoc analysis with the p-value of 0.05.
The cell line stably expressing rat TRPV1 was used for electrophysiological and internal Ca^2+ fluorescent recordings. […] In Fluo-4-based intracellular calcium assay experiments, capsaicin or 2APB were used as channel agonists. […] To take the response rundown in account, the peptide effects were measured relative to the average value of the preceding and subsequent control responses (see S2 Fig).
Fig 1 Action of APHCs on capsaicin-induced TRPV1 currents. […] G, Current–voltage relationship for TRPV1 currents induced by 3 and 0.3 μM capsaicin in control (black and red) and in the presence of 100 nM APHC1 (blue and magenta). […] I, Summary of the polypeptides action (100 nM) on TRPV1 responses activated by different concentrations of capsaicin, n = 9 for all series.

rat TRPV1 [2] = target: T1, rat TRPV1; assay type: cell-based; remark: listed apart in the source
Experimental: as §1

human TRPV1 = conditions: cited from earlier work
Text: (§2) Since elaboration of TRPV1 pharmacology has obvious perspectives related to the potential treatment of pain and inflammation, many compounds affecting TRPV1 activation have been characterized. Some TRPV1 ligands have distinct effects on different modes of channel activation (heat, protons or chemical ligands).

rat TRPV1 [3] = target: T1, rat TRPV1; conditions: ref [8], [10], [11]; cited from earlier work
Text: as §2

monkey TRPV1 = conditions: ref [10], [11]; cited from earlier work
Text: as §2

mice = conditions: ref [20], [21], [22]; cited from earlier work
Text: Small lipophilic drugs can potentially reach their binding sites in different parts of a receptor, which complicates the study of mechanisms of action. Binding sites for membrane-impermeable peptide modulators should be localized at the outside surface of a channel protein. There are a few examples of polypeptides affecting TRPV1 channels.

TRPV1 = test system: TRPV1; set-up: method as in PMID 17093448, PMID 20510930, PMID 26420335, PMID 24061123; conditions: ref [20], [21], [22], [39]; cited from earlier work

T1 sequence (O35433 whole entry): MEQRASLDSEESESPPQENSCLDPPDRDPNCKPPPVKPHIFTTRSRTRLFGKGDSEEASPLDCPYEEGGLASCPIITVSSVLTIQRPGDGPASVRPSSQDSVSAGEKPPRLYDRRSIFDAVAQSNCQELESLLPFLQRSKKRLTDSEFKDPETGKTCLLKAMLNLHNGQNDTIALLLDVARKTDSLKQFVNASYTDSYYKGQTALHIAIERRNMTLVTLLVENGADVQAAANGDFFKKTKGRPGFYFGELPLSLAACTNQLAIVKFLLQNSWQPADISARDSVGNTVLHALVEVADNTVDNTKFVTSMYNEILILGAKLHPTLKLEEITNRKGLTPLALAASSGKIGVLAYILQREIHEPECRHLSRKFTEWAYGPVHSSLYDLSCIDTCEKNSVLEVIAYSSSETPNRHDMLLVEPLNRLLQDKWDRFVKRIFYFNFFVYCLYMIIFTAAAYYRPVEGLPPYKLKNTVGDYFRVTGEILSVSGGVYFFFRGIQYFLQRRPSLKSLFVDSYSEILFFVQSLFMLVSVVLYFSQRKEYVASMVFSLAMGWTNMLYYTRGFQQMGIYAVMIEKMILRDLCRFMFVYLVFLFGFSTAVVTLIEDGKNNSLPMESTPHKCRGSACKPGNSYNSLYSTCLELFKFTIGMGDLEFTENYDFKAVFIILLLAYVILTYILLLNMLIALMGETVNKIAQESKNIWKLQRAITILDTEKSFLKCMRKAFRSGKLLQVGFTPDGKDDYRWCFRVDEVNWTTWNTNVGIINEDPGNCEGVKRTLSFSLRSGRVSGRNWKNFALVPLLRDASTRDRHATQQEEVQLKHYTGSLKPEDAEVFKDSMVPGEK

## NCCOB(c1ccccc1)c1ccccc1 [2APB, 2-aminoethoxydiphenyl borate]
Rat TRPV1 [1]
  reversal voltage of evoked currents: close to zero
Rat TRPV1 [2]
  Ca2+ influx on agonist application: did not result in a detectable Ca^2+ influx

## O=C(/C=C/c1ccc(C(F)(F)F)cc1N1CCCCC1)Nc1cccc2c1C[C@H](O)C2 [AMG8562, (R,E)-N-(2-hydroxy-2,3-dihydro-1H-inden-4-yl)-3-(2-(piperidin-1-yl)-4-(trifluoromethyl)phenyl)-acrylamide]
Human TRPV1; ref [11]
  effect on capsaicin activation of human TRPV1: blocks both heat and capsaicin activation
  effect on heat activation of human TRPV1: blocks both heat and capsaicin activation
  effect on proton activation of human TRPV1: partial antagonist of proton activation
Rat TRPV1 [3]
  effect on capsaicin response of rat TRPV1: blocks capsaicin activation
  effect on heat response of rat TRPV1: does not affect heat activation
  effect on proton response of rat TRPV1: potentiates proton activation

## CC(C)(C)c1ccc(CNC(=S)NCc2ccc(NS(C)(=O)=O)c(F)c2)cc1 [JYL-1421]
Human TRPV1; ref [10], [11]
  action profile of rat TRPV1 (block of capsaicin, not heat or protons) on human TRPV1: could not be shown
Monkey TRPV1
  action profile of rat TRPV1 (block of capsaicin, not heat or protons) on monkey TRPV1: could not be shown
Rat TRPV1 [3]
  effect on capsaicin response of rat TRPV1: blocks responses to capsaicin
  effect on proton response of rat TRPV1: not to heat or protons

## COc1cc(CNC(=O)CCCC/C=C/C(C)C)ccc1O [capsaicin]
Rat TRPV1 [1]
  reversal voltage of evoked currents: close to zero

## Oc1cc2c(cc1O)CN(C(=S)NCCc1ccc(Cl)cc1)CCC2 [capsazepine]
Rat TRPV1 [1]
  block of capsaicin-evoked currents: reversibly blocked; also recorded: abolished
Rat TRPV1 [3]
  effect on capsaicin response of rat TRPV1: heat and capsaicin responses are blocked at low capsazepine concentrations
  effect on heat response of rat TRPV1: heat and capsaicin responses are blocked at low capsazepine concentrations
  effect on proton response of rat TRPV1: ineffective as an antagonist of proton-induced response
Rat TRPV1 [2]
  block of calcium responses to capsaicin: fully blocked; also recorded: abolished

B1: DkTx: the bivalent toxin DkTx from tiger tarantula Ornithoctonus huwena (peptide, UniProt P0CH43 1-79, looked up)
Tau-theraphotoxin-Hs1a: DCAKEGEVCSWGKKCCDLDNFYCPMEFIPHCKKYKPYVPVTTNCAKEGEVCGWGSKCCHGLDCPLAFIPYCEKYRGRND
modifications: Tau-theraphotoxin-Hs1a
notes: the bivalent toxin DkTx from tiger tarantula Ornithoctonus huwena
mice
  effect when injected in mice: cause pain behavior
TRPV1
  action on TRPV1: Peptide agonists of TRPV1
